Patent publication US8648081B2 (Eli Lilly and Company, priority 2011, dated 2014)

Test system: Lone star tick larvae (Amblyomma americanum)
Assay: In Vitro Larval Immersion Microassay (LIM)
Settings: read-out: % Efficacy (percent larval mortality)
Experimental: In Vitro Larval Immersion Microassay (LIM)
The larval immersion microassay may be conducted as described in White, et al., J. Med. Entomol. […] Briefly, experimental test articles are formulated in dimethylsulfoxide (DMSO) to prepare a stock solution at a concentration of 10 mM. […] Approximately 30-50 Lone star tick larvae (Amblyomma americanum) are submerged into each well containing experimental test articles. After a 30 minute immersion period, larvae are removed with a wide-bore pipette tip in 0.05 ml of fluid, dispensed into a commercial paper tissue biopsy bag which is sealed at the top with a plastic dialysis clip, inverted and allowed to air dry for 60 minutes. Bags containing larvae are then incubated at approximately 27 degrees Celsius and >90% relative humidity. After 24 hours, bags are opened, live and dead larvae are counted and percent larval mortality is calculated as follows: % Efficacy=(# dead larvae)/(# total larvae)×100.

SMILES	mortality at 300 µM [%]
CCNC(=O)CNC(=O)c1sc(C2=NOC(c3cc(Cl)cc(Cl)c3)(C(F)(F)F)C2)c2c1CCCC2 (stereo not shown) [Example 63, 3-(5-(3,5-dichloro-phenyl)-5-(trifluoro-methyl)-4,5-dihydro-isoxazol-3-yl)-N-(2-(ethylamino)-2-oxoethyl)-4,5,6,7-tetrahydrobenzo [c]thiophene-1-carboxamide]	≥ 80
FC(F)(F)C1(c2cc(Cl)cc(Cl)c2)CC(c2cc3cc(Br)cnc3s2)=NO1 (stereo not shown) [Example 231, 5-Bromo-2-[5-(3,5-dichloro-phenyl)-5-trifluoromethyl-4,5-dihydro-isoxazol-3-yl]-thieno[2,3-b]pyridine]	≥ 80
Cc1ccc2sc(C3=NOC(c4cc(Cl)cc(Cl)c4)(C(F)(F)F)C3)cc2c1 (stereo not shown) [Example 236, 5-(3,5-dichloro-phenyl)-3-(5-methyl-benzo[b]thiophen-2-yl)-5-(trifluoro-methyl)-4,5-dihydro-isoxazole]	≥ 80
N#CCNC(=O)CNC(=O)c1sc(C2=NOC(c3cc(Cl)c(Cl)c(Cl)c3)(C(F)(F)F)C2)c2c1CCCC2 (stereo not shown) [Example 46, N-(2-(cyanomethyl-amino)-2-oxoethyl)-3-(5-(3,4,5-trichloro-phenyl)-5-(trifluoro-methyl)-4,5-dihydro-isoxazol-3-yl)-4,5,6,7-tetrahydrobenzo [c]thiophene-1-carboxamide]	≥ 80
O=C(CNC(=O)c1sc(C2=NOC(c3cc(Cl)c(F)c(Cl)c3)(C(F)(F)F)C2)c2c1CCC2)NCC(F)(F)F (stereo not shown) [Example 57, 3-(5-(3,5-dichloro-4-fluorophenyl)-5-(trifluoromethyl)-4,5-dihydroisoxazol-3-yl)-N-(2-oxo-2-(2,2,2-trifluoroethylamino)ethyl)-5,6-dihydro-4H-cyclopenta[c] thiophene-1-carboxamide]	≥ 80
O=C(CNC(=O)c1sc(C2=NOC(c3cc(Cl)c(Cl)c(Cl)c3)(C(F)(F)F)C2)c2c1CCC2)NCC(F)(F)F (stereo not shown) [Example 52, N-(2-oxo-2-(2,2,2-trifluoroethylamino)ethyl)-3-(5-(3,4,5-trichlorophenyl)-5-(trifluoromethyl)-4,5-dihydroisoxazol-3-yl)-5,6-dihydro-4H-cyclopenta[c] thiophene-1-carboxamide]	≥ 80
C#CCNC(=O)CNC(=O)c1sc(C2=NOC(c3cc(Cl)cc(Cl)c3)(C(F)(F)F)C2)c2c1CCCC2 (stereo not shown) [Example 95, 3-(5-(3,5-dichlorophenyl)-5-(trifluoromethyl)-4,5-dihydroisoxazol-3-yl)-N-(2-oxo-2-(prop-2-ynylamino)ethyl)-4,5,6,7-tetrahydrobenzo [c]thiophene-1-carboxamide]	≥ 80
FC(F)(F)C1(c2cc(Cl)cc(Cl)c2)CC(c2cc3ccncc3s2)=NO1 (stereo not shown) [Example 230, 2-[5-(3,5-Dichloro-phenyl)-5-tri-fluoromethyl-4,5-dihydro-isoxazol-3-yl]-thieno[2,3-c] pyridine]	≥ 80
O=C(NC1CCOCC1)c1sc(C2=NOC(c3cc(Cl)c(F)c(Cl)c3)(C(F)(F)F)C2)c2c1CCCC2 (stereo not shown) [Example 83, 3-(5-(3,5-dichloro-4-fluorophenyl)-5-(trifluoromethyl)-4,5-dihydro-isoxazol-3-yl)-N-(tetrahydro-2H-pyran-4-yl)-4,5,6,7-tetrahydro-benzo[c]thiophene-1-carboxamide]	≥ 80
O=C(NC1CCN(CC(F)(F)F)C1=O)c1sc(C2=NOC(c3cc(Cl)cc(Cl)c3)(C(F)(F)F)C2)c2c1CCCC2 (stereo not shown) [Example 40, 3-[5-(3,5-Dichloro-phenyl)-5-trifluoro-methyl-4,5-dihydro-isoxazol-3-yl]-4,5,6,7-tetrahydro-benzo[c] thiophene-1-carboxylic acid [2-oxo-1-(2,2,2-trifluoro-ethyl)-pyrrolidin-3-yl]-amide]	≥ 80
N#CCNC(=O)CNC(=O)c1sc(C2=NOC(c3cc(Cl)cc(Cl)c3)(C(F)(F)F)C2)c2c1CCC2 (stereo not shown) [Example 42, N-(2-(cyanomethyl-amino)-2-oxoethyl)-3-(5-(3,5-dichlorophenyl)-5-(trifluoromethyl)-4,5-dihydroisoxazol-3-yl)-5,6-dihydro-4H-cyclopenta[c]thiophene-1-carboxamide]	≥ 80
N#CCNC(=O)CNC(=O)c1sc(C2=NOC(c3cc(Cl)c(F)c(Cl)c3)(C(F)(F)F)C2)c2c1CCCC2 (stereo not shown) [Example 50, N-(2-(cyanomethyl-amino)-2-oxoethyl)-3-(5-(3,5-dichloro-4-fluorophenyl)-5-(trifluoromethyl)-4,5-dihydroisoxazol-3-yl)-4,5,6,7-tetrahydrobenzo [c]thiophene-1-carboxamide]	≥ 80
O=C(NC1CS(=O)(=O)C1)c1sc(C2=NOC(c3cc(Cl)c(F)c(Cl)c3)(C(F)(F)F)C2)c2c1CCCC2 (stereo not shown) [Example 79, 3-[5-(3,5-Dichloro-4-fluoro-phenyl)-5-trifluoromethyl-4,5-dihydro-isoxazol-3-yl]-4,5,6,7-tetrahydro-benzo[c]thiophene-1-carboxylic acid (1,1-dioxo-thietan-3-yl)-amide]	≥ 80
O=C(NCCC(F)(F)F)c1sc(C2=NOC(c3cc(Cl)cc(Cl)c3)(C(F)(F)F)C2)c2c1CCCC2 (stereo not shown) [Example 66, 3-(5-(3,5-dichloro-phenyl)-5-(trifluoro-methyl)-4,5-dihydro-isoxazol-3-yl)-N-(3,3,3-trifluoropropyl)-4,5,6,7-tetrahydrobenzo[c] thiophene-1-carboxamide]	≥ 80
N#CCNC(=O)CNC(=O)c1sc(C2=NOC(c3cc(Cl)c(Cl)c(Cl)c3)(C(F)(F)F)C2)c2c1CCC2 (stereo not shown) [Example 54, N-(2-(cyanomethyl-amino)-2-oxoethyl)-3-(5-(3,4,5-trichloro-phenyl)-5-(trifluoro-methyl)-4,5-dihydro-isoxazol-3-yl)-5,6-dihydro-4H-cyclo-penta[c]thiophene-1-carboxamide]	≥ 80
O=C(NC1CCN(CC(F)(F)F)C1=O)c1sc(C2=NOC(c3cc(Cl)c(F)c(Cl)c3)(C(F)(F)F)C2)c2c1CCCC2 (stereo not shown) [Example 82]	≥ 80
O=C(N[C@@H]1CCNC1=O)c1sc(C2=NOC(c3cc(Cl)c(Cl)c(Cl)c3)(C(F)(F)F)C2)c2c1CCC2 (stereo partly drawn) [Example 53, N-((R)-2-oxopyrrolidin-3-yl)-3-(5-(3,4,5-trichlorophenyl)-5-(trifluoromethyl)-4,5-dihydroisoxazol-3-yl)-5,6-dihydro-4H-cyclopenta[c] thiophene-1-carboxamide]	≥ 80
O=C(NC1CCN(CC(F)(F)F)C1=O)c1sc(C2=NOC(c3cc(Cl)c(F)c(Cl)c3)(C(F)(F)F)C2)c2c1CCC2 (stereo not shown) [Example 60, 3-(5-(3,5-dichloro-4-fluorophenyl)-5-(trifluoromethyl)-4,5-dihydroisoxazol-3-yl)-N-(2-oxo-1-(2,2,2-trifluoroethyl)pyrrolidin-3-yl)-5,6-dihydro-4H-cyclopenta[c] thiophene-1-carboxamide]	≥ 80
O=C(CNC(=O)c1sc(C2=NOC(c3cc(Cl)c(Cl)c(Cl)c3)(C(F)(F)F)C2)c2c1CCCC2)NCC(F)(F)F (stereo not shown) [Example 44, N-(2-oxo-2-(2,2,2-trifluoroethylamino)ethyl)-3-(5-(3,4,5-trichlorophenyl)-5-(trifluoromethyl)-4,5-dihydroisoxazol-3-yl)-4,5,6,7-tetrahydrobenzo [c]thiophene-1-carboxamide]	≥ 80
O=C(Nc1ccc(F)cn1)c1sc(C2=NOC(c3cc(Cl)cc(Cl)c3)(C(F)(F)F)C2)c2c1CCCC2 (stereo not shown) [Example 68, 3-(5-(3,5-dichloro-phenyl)-5-(trifluoro-methyl)-4,5-dihydro-isoxazol-3-yl)-N-(5-fluoropyridin-2-yl)-4,5,6,7-tetrahydro-benzo[c]thiophene-1-carboxamide]	≥ 80
O=C(N[C@@H]1CCNC1=O)c1sc(C2=NO[C@@](c3cc(Cl)cc(Cl)c3)(C(F)(F)F)C2)c2c1CCCC2 [Example 87b, 3-((S)-5-(3,5-dichlorophenyl)-5-(trifluoromethyl)-4,5-dihydroisoxazol-3-yl)-N—((R)-2-oxopyrrolidin-3-yl)-4,5,6,7-tetrahydrobenzo[c]thiophene-1-carboxamide]	≥ 80
C#CCNC(=O)CNC(=O)c1sc(C2=NOC(c3cc(Cl)c(F)c(Cl)c3)(C(F)(F)F)C2)c2c1CCC2 (stereo not shown) [Example 61, 3-(5-(3,5-dichloro-4-fluorophenyl)-5-(trifluoromethyl)-4,5-dihydroisoxazol-3-yl)-N-(2-oxo-2-(prop-2-ynylamino)ethyl)-5,6-dihydro-4H-cyclopenta[c] thiophene-1-carboxamide]	≥ 80
O=C(N[C@@H]1CCNC1=O)c1sc(C2=NOC(c3cc(Cl)c(F)c(Cl)c3)(C(F)(F)F)C2)c2c1CCCC2 (stereo partly drawn) [Example 49, 3-(5-(3,5-dichloro-4-fluorophenyl)-5-(trifluoromethyl)-4,5-dihydroisoxazol-3-yl)-N-((R)-2-oxopyrrolidin-3-yl)-4,5,6,7-tetrahydro-benzo[c]thiophene-1-carboxamide]	≥ 80
O=C(N[C@@H]1CCNC1=O)c1sc(C2=NOC(c3cc(Cl)cc(Cl)c3)(C(F)(F)F)C2)c2c1CCCC2 (stereo partly drawn) [Example 32, 3-(5-(3,5-dichlorophenyl)-5-(trifluoromethyl)-4,5-dihydroisoxazol-3-yl)-N—((R)-2-oxopyrrolidin-3-yl)-4,5,6,7-tetrahydrobenzo[c]thiophene-1-carboxamide]	≥ 80
C#CCNC(=O)CNC(=O)c1sc(C2=NOC(c3cc(Cl)c(Cl)c(Cl)c3)(C(F)(F)F)C2)c2c1CCCC2 (stereo not shown) [Example 47, N-(2-oxo-2-(prop-2-ynylamino)ethyl)-3-(5-(3,4,5-trichlorophenyl)-5-(trifluoromethyl)-4,5-dihydroisoxazol-3-yl)-4,5,6,7-tetrahydro-benzo[c]thiophene-1-carboxamide]	≥ 80
